Values of other authors in article PMC12067266 (Proceedings of the National Academy of Sciences of the …, 2025).

Test system: KCa3.1
Details: read-out: KCa3.1 IC50; ref [21]–[23], [49], [50]

SMILES | IC50
O=C1CSc2ccccc2N1Cc1cccc(C(F)(F)F)c1 [NS6180] | 9 nM
NC(=O)C(c1ccccc1)(c1ccc(F)cc1)c1ccc(F)cc1 [Senicapoc] | 11 nM
